Molecules are shown by their SMILES.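 Growth conditions: 96-well plates. Treatment: test compound, 48 hours, 5 concentrations. Analysis: linear interpolation between bracketing concentrations; unreached endpoints set to highest concentration. GI50 is the concentration that inhibits growth by half.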 Calls of active or inactive are those of the source. Cut-off read from the data, not from the text of the source: active = GI50 up to about 1.1 µM and inactive = higher.

The source of these data is ChEMBL document CHEMBL1201862, “PubChem BioAssay data set” (2004).

Some test systems named below: RXF 393; SF-295; HT-29; SF-539; NCI-H23; TK-10; EKVX; NCI-H460; OVCAR-5; COLO 205; SNB-75; K562; A549; RPMI-8226; OVCAR-3; A498; HCC 2998; HOP-92; SK-MEL-28.
Experiment in all cases: NCI tumour cell line growth inhibition, 48 h

With `O=C1Cc2c([nH]c3ccccc23)-c2cc(Br)ccc2N1`, the GI50 in the assay with RXF 393, in the assay on SF-295, in the assay with HT-29, in the assay on SF-539, with NCI-H23 and in the assay with TK-10 was > 100 µM (inactive) in each case. Also, the GI50 in the assay on EKVX, in the assay with NCI-H460, in the assay with OVCAR-5, in the assay with COLO 205, in the assay with SNB-75 and in the assay on K562 was > 100 µM (inactive) each time. For the same molecule, the GI50 in the assay on A549, with RPMI-8226, with OVCAR-3, in the assay on A498, in the assay with HCC 2998 and in the assay on HOP-92 was > 100 µM (inactive) each time. In addition, the GI50 in the assay with SK-MEL-28 is > 100 µM (inactive).

Take `CN(C)c1ccc(/C=c2\sc3nnc(-c4ccco4)n3c2=O)cc1`: the GI50 in the assay with RXF 393, in the assay with SF-295, in the assay with SF-539, in the assay with NCI-H23, with TK-10 and in the assay with EKVX was > 100 µM (inactive) in each case. Besides, the GI50 is > 100 µM (inactive) in the assay with NCI-H460; > 100 µM (inactive) with OVCAR-5; > 100 µM (inactive) in the assay with COLO 205; 31.6 µM (inactive) in the assay on SNB-75; > 100 µM (inactive) with K562; > 100 µM (inactive) in the assay with A549. The GI50 in the assay with RPMI-8226, with OVCAR-3, in the assay with A498, in the assay with HCC 2998, in the assay with HOP-92 and with SK-MEL-28 was > 100 µM (inactive) in each case.

Turning to `COc1ccc2c(c1)C(N)CC2=O` (stereo not drawn), the GI50 in the assay on RXF 393 is 19 µM (inactive); with SF-295, > 100 µM (inactive); in the assay on HT-29 it was > 100 µM (inactive); with SF-539, > 100 µM (inactive); in the assay with NCI-H23, > 100 µM (inactive); with TK-10 it was > 100 µM (inactive). The GI50 in the assay on EKVX was > 100 µM (inactive); in the assay on OVCAR-5, > 100 µM (inactive); in the assay on COLO 205, > 100 µM (inactive); with SNB-75, > 100 µM (inactive); in the assay on K562, > 100 µM (inactive); with A549, 19.1 µM (inactive). Moreover, the GI50 in the assay with RPMI-8226, in the assay on OVCAR-3, in the assay on A498, in the assay on HCC 2998, with HOP-92 and in the assay on SK-MEL-28 was > 100 µM (inactive) in each case.

Consider `O=C(Cn1c2ccc(Br)cc2c2nc3ccccc3nc21)NC1CCCCC1`, for which the GI50 with RXF 393, in the assay with SF-295, with HT-29, in the assay with NCI-H23, in the assay with TK-10 and with NCI-H460 was > 100 µM (inactive) throughout. Moreover, the GI50 in the assay on OVCAR-5 is > 100 µM (inactive); with COLO 205, > 100 µM (inactive); in the assay on SNB-75, 36.1 µM (inactive); in the assay with K562, > 100 µM (inactive); in the assay on A549, > 100 µM (inactive); with RPMI-8226, > 100 µM (inactive). The GI50 was > 100 µM (inactive) with OVCAR-3; > 100 µM (inactive) in the assay on A498; > 100 µM (inactive) in the assay with HCC 2998; 51.1 µM (inactive) in the assay on HOP-92; 81.1 µM (inactive) in the assay on SK-MEL-28.

For `C=C(C1=CC(=O)C(C)(C)O1)[C@@H]1CC=C([C@@H]2CC[C@H]3[C@@]2(C)CC[C@H]2C(C)(C)C(=O)[C@H](O)C[C@]32C)[C@H](O)O1`, the GI50 in the assay on RXF 393 was 1.81 µM (inactive); in the assay on SF-295, 8.04 µM (inactive); in the assay on HT-29, 1.87 µM (inactive); in the assay with SF-539, 1.34 µM (inactive); in the assay on NCI-H23, 3.85 µM (inactive); with TK-10, 1.19 µM (inactive). Further, the GI50 in the assay with EKVX is 10.1 µM (inactive); in the assay on NCI-H460 it was 13 µM (inactive); with OVCAR-5 it was 13.7 µM (inactive); in the assay with COLO 205, 1.8 µM (inactive); in the assay with SNB-75, 10.6 µM (inactive); with K562, 1.71 µM (inactive). The GI50 with A549 is 13.6 µM (inactive); with RPMI-8226 it was 0.342 µM (active); in the assay with OVCAR-3, 0.847 µM (active); in the assay with A498, 5.16 µM (inactive); in the assay with HCC 2998, 2.89 µM (inactive); with HOP-92, 1.98 µM (inactive). In the assay on SK-MEL-28, the GI50 is 4.42 µM (inactive).

For `O=C1CCC(=O)C1=NNc1cc(Cl)cc(Cl)c1`, the GI50 in the assay with RXF 393, in the assay with SF-295, in the assay with HT-29, in the assay with SF-539, with NCI-H23 and in the assay with TK-10 was > 100 µM (inactive) in each case. Moreover, the GI50 with EKVX is > 100 µM (inactive); with NCI-H460, 71.8 µM (inactive); with OVCAR-5, > 100 µM (inactive); in the assay on COLO 205 it was 36.6 µM (inactive); in the assay with SNB-75 it was > 100 µM (inactive); with K562, > 100 µM (inactive). In addition, the GI50 in the assay on A549 is > 100 µM (inactive); in the assay with RPMI-8226, 32.7 µM (inactive); with OVCAR-3 it was 26.2 µM (inactive); in the assay with A498 it was 15.6 µM (inactive); in the assay on HCC 2998 it was > 100 µM (inactive); with HOP-92, > 100 µM (inactive). In the assay on SK-MEL-28, the GI50 is > 100 µM (inactive).

With `CC1=C(C(=O)OC(C)(C)C)C(c2ccc([N+](=O)[O-])cc2)C(C(=O)OC(C)(C)C)=C(C)N1`, the GI50 in the assay on RXF 393 is 19.3 µM (inactive); in the assay on SF-295 it was 20.2 µM (inactive); in the assay on HT-29, 19.8 µM (inactive); in the assay with SF-539 it was 19.8 µM (inactive); in the assay with NCI-H23, 19.6 µM (inactive); in the assay on TK-10 it was 20.1 µM (inactive). Moreover, the GI50 is 18.5 µM (inactive) in the assay on EKVX; 22.2 µM (inactive) in the assay on NCI-H460; 19.1 µM (inactive) in the assay on OVCAR-5; 22.6 µM (inactive) with COLO 205; 24.1 µM (inactive) in the assay on SNB-75; 25.4 µM (inactive) in the assay on K562. Besides, the GI50 with A549 is 24.9 µM (inactive); in the assay with RPMI-8226, 17 µM (inactive); in the assay with OVCAR-3, 20.1 µM (inactive); in the assay on A498, 22.8 µM (inactive); with HCC 2998 it was 13.2 µM (inactive); with HOP-92, 15.4 µM (inactive). Further, the GI50 in the assay with SK-MEL-28 is 20.1 µM (inactive).

With `Cc1ccc2ccc(O)cc2c1`, the GI50 in the assay with RXF 393 was 44.9 µM (inactive); with SF-295 it was 39.4 µM (inactive); in the assay with HT-29, 53.6 µM (inactive); with SF-539 it was 38.4 µM (inactive); in the assay on NCI-H23, 37.8 µM (inactive); in the assay with TK-10, > 100 µM (inactive). Moreover, the GI50 in the assay on EKVX was 43.4 µM (inactive); in the assay on NCI-H460, 89.1 µM (inactive); in the assay with OVCAR-5 it was 55.8 µM (inactive); with COLO 205 it was > 100 µM (inactive); with SNB-75, 48.9 µM (inactive); in the assay with K562 it was 20.2 µM (inactive). Besides, the GI50 was 72.4 µM (inactive) in the assay with A549; 27.9 µM (inactive) in the assay with RPMI-8226; 10.2 µM (inactive) with OVCAR-3; 37.2 µM (inactive) with A498; 18.2 µM (inactive) with HCC 2998; 24.9 µM (inactive) in the assay on HOP-92. Moreover, the GI50 in the assay with SK-MEL-28 was > 100 µM (inactive).

Consider `COc1nc(NC2OC(COC(C)=O)C(OC(C)=O)C(OC(C)=O)C2OC(C)=O)c2c(OC(C)=O)c(C)c(=O)oc2n1` (stereo not drawn), for which the GI50 in the assay on RXF 393, in the assay with SF-295, in the assay with HT-29, in the assay on SF-539, in the assay with NCI-H23 and with TK-10 was > 100 µM (inactive) in each case. For the same molecule, the GI50 was > 100 µM (inactive) in the assay with EKVX; 1.67 µM (inactive) with NCI-H460; > 100 µM (inactive) in the assay with OVCAR-5; > 100 µM (inactive) with COLO 205; > 100 µM (inactive) with SNB-75; > 100 µM (inactive) in the assay on K562. The GI50 with A549 is > 100 µM (inactive); in the assay on RPMI-8226, > 100 µM (inactive); in the assay with OVCAR-3 it was > 100 µM (inactive); in the assay on A498, 1.75 µM (inactive); in the assay on HCC 2998, > 100 µM (inactive); in the assay on HOP-92 it was > 100 µM (inactive).

As for `O=C(Cc1c(C(=O)Nc2ccccc2)sc(C(=O)Nc2ccccc2)c1CC(=O)Nc1ccccc1)Nc1ccccc1`, the GI50 in the assay on RXF 393, in the assay on SF-295, in the assay with HT-29, in the assay on SF-539, with NCI-H23 and in the assay on TK-10 was > 100 µM (inactive) each time. Also, the GI50 in the assay with EKVX, in the assay with NCI-H460, with OVCAR-5, with COLO 205, in the assay on SNB-75 and with K562 was > 100 µM (inactive) in each case. Moreover, the GI50 with A549, in the assay on RPMI-8226, with OVCAR-3, with A498, in the assay with HCC 2998 and with HOP-92 was > 100 µM (inactive) each time. In the assay with SK-MEL-28, the GI50 is 0.719 µM (active).

Consider `COC(=O)C1=CN(C2CCCCC2)C2(c3ccccc3)c3ccccc3C(=O)OC(=O)C12` (stereo not drawn), for which the GI50 is 23 µM (inactive) with RXF 393; > 100 µM (inactive) in the assay on SF-295; 62.2 µM (inactive) with HT-29; > 100 µM (inactive) in the assay on SF-539; > 100 µM (inactive) with NCI-H23; > 100 µM (inactive) with TK-10. In addition, the GI50 with EKVX was > 100 µM (inactive); in the assay on NCI-H460 it was 80.2 µM (inactive); with OVCAR-5, > 100 µM (inactive); in the assay with COLO 205, 72.8 µM (inactive); in the assay on SNB-75, > 100 µM (inactive); with K562, 20.1 µM (inactive). In addition, the GI50 with A549 is 95.5 µM (inactive); in the assay on OVCAR-3, > 100 µM (inactive); in the assay with A498, > 100 µM (inactive); in the assay with HCC 2998 it was 27 µM (inactive); in the assay with HOP-92 it was 39 µM (inactive); with SK-MEL-28, > 100 µM (inactive).
